Measured values published in PubChem BioAssay AID2060505 (Molecular Pharmacology Branch, DTP, NCI, 2025).

Test system: 633275-114-R-J1-PDC complex spheroids, viability
Assay: Anticancer human tumor 633275-114-R-J1-PDC patient-derived endometrial adenocarcinoma cell line growth inhibition [GQUAD]
Conditions: for IC50: curve of first compound; for viability, T/C: stronger effect = lower value
Text: DNA G-quadruplex Stabilizer Agents in Combinations in Complex Spheroids
A high-throughput screen of multi-cell type tumor spheroids was designed to identify active combinations of DNA G-quadruplex stabilizer agents and targeted small molecules. Complex spheroids include a stromal component modeled by human endothelial cells (HUVEC) and fibroblasts modeled by human mesenchymal stem cells (MSCs). The concentration ranges selected for each drug and investigational agent were based upon clinically achievable concentrations if the clinical Cmax of the agent was known.
Compounds. The drugs and investigational agents: pidnarulex (CX-5461; NSC782164), APTO-253 (NSC789042), BRACO-19 (NSC847499), peposertib (NSC802822), ceralasertib (NSC780249), elimusertib (NSC800525), camonsertib (NSC841442), AZD-1390 (NSC803789), olaparib (NSC753686), talazoparib (NSC767125), ART-558 (NSC835418), sotorasib (NSC818433), MRTX-1133 (NSC836407), SN-38 (NSC673596), topotecan (NSC609699), etoposide (NSC141540), doxorubicin (NSC123127), gemcitabine (NSC613327), 5-fluorouracil (NSC19893), paclitaxel (NSC125973), vemurafenib (NSC761431), panobinostat (NSC761190), R-306465 (JNJ-16241199; NSC773264), adavosertib (NSC754352), TP-3654 (NSC805149), carboplatin (NSC241240), KSQ-4279 (NSC840948), and staurosporine (NSC755774) were obtained from the National Cancer Institute (NCI) Developmental Therapeutics Program Chemical Repository (34). The FDA-approved anticancer drug set is available from the NCI Developmental Therapeutics Program. […] The stock solutions were prepared in dimethyl sulfoxide (DMSO, Sigma-Aldrich, St. Louis, MO, cat. D2650) at 800-fold the tested concentration and stored at -70 degrees C prior to their use. All drugs and investigational agents were tested over a range starting from a high concentration at or near the clinical Cmax and decreasing in half-log increments. If the clinical Cmax for an agent had not been determined, the highest concentration tested was 10 microM.
2.3 Cell Culture. All cells were maintained in an incubator at 37 degrees C and 5% CO2 with 95% humidity. The PDC lines were cultured according to standard operating procedures established by the NCI PDMR. All PDCs were thawed and cultured in Matrigel-coated flasks prepared with a working solution of 1X Ham's F-12 nutrient mix, without supplementation (Invitrogen, cat. 11765054), 100 U/mL penicillin-streptomycin (Invitrogen, cat. 15140122), and 2.5% Matrigel (Corning Inc., cat. 354248) for the first three passages. The 857933-349-R-J2-PDC line was cultured in 6C/Colon 1B media, which includes advanced DMEM/F-12 (Thermo Fisher Scientific, cat. 12634028), 10 mM HEPES (Thermo Fisher Scientific, cat. 15630080), 1X GlutaMAX supplement (Thermo Fisher Scientific, cat. 35050061), 0.1 mg/mL primocin (InvivoGen, cat. ant-pm-2), 10% defined fetal bovine serum, heat inactivated (HyClone Laboratories Inc., cat. SH30070.03HI), 50% L-WRN conditioned media (ATCC, cat. CRL-3276), 1.25 mM N-Acetyl-L-cysteine (Sigma-Aldrich, cat. A9165), 10 mM nicotinamide (Sigma-Aldrich, cat. N0636), 1X B-27 supplement (Thermo Fisher Scientific, cat. 17504044), 1X N-2 supplement (Thermo Fisher Scientific, cat. 17502048), 10 microM Y-27632 dihydrochloride (Tocris Bioscience, cat. 1254), and 50 ng/mL human EGF recombinant protein (Thermo Fisher Scientific, cat. PHG0311). The 485176-168-R4-J1-PDC line was cultured in Panc media, which includes all 6C/Colon 1B media components plus 100 ng/mL human FGF-10 (Thermo Fisher Scientific, cat. 100-26), 500 nM SB-431542 (Selleckchem, cat. S1067), and gastrin (Tocris, cat. 3006).
[…]
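Note: spheroids exposed to the agents for seven days.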
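Throughout, for viability, T/C: percent of DMSO vehicle control viability which is 100%.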

Compound: COc1cccc2c1C(=O)c1c(O)c3c(c(O)c1C2=O)CC(O)(C(=O)CO)CC3OC1CC(N)C(O)C(C)O1 (configuration not stated) + CN(C)c1ccc(Nc2c3ccc(NC(=O)CCN4CCCC4)cc3nc3cc(NC(=O)CCN4CCCC4)ccc23)cc1
- IC50 (second compound 0.0316 µM): 91.8 nM
- IC50 (second compound 0.1 µM): 77.9 nM
- IC50 (second compound 0.316 µM): 73.2 nM
- IC50 (second compound 1 µM): 65.5 nM
- IC50 (second compound 3.16 µM): 47.1 nM
- IC50 (second compound 10 µM): < 31.6 nM
- viability, T/C (second compound 0.0316 µM, first compound 0.0316 µM): 62.9%
- viability, T/C (second compound 0.0316 µM, first compound 0.1 µM): 48.1%
- viability, T/C (second compound 0.0316 µM, first compound 0.316 µM): 32%
- viability, T/C (second compound 0.0316 µM, first compound 1 µM): 20.6%
- viability, T/C (second compound 0.0316 µM, first compound 3.16 µM): 1.62%
- viability, T/C (second compound 0.0316 µM, first compound 10 µM): 2.01%
- viability, T/C (second compound 0.1 µM, first compound 0.0316 µM): 62.7%
- viability, T/C (second compound 0.1 µM, first compound 0.1 µM): 45%
- viability, T/C (second compound 0.1 µM, first compound 0.316 µM): 31%
- viability, T/C (second compound 0.1 µM, first compound 1 µM): 18.3%
- viability, T/C (second compound 0.1 µM, first compound 3.16 µM): 1.63%
- viability, T/C (second compound 0.1 µM, first compound 10 µM): 2.02%
- viability, T/C (second compound 0.316 µM, first compound 0.0316 µM): 63.6%
- viability, T/C (second compound 0.316 µM, first compound 0.1 µM): 43.5%
- viability, T/C (second compound 0.316 µM, first compound 0.316 µM): 30.1%
- viability, T/C (second compound 0.316 µM, first compound 1 µM): 18.9%
- viability, T/C (second compound 0.316 µM, first compound 3.16 µM): 2.31%
- viability, T/C (second compound 0.316 µM, first compound 10 µM): 1.97%
- viability, T/C (second compound 1 µM, first compound 0.0316 µM): 59.1%
- viability, T/C (second compound 1 µM, first compound 0.1 µM): 42%
- viability, T/C (second compound 1 µM, first compound 0.316 µM): 33.6%
- viability, T/C (second compound 1 µM, first compound 1 µM): 15.2%
- viability, T/C (second compound 1 µM, first compound 3.16 µM): 3.04%
- viability, T/C (second compound 1 µM, first compound 10 µM): 1.66%
- viability, T/C (second compound 3.16 µM, first compound 0.0316 µM): 56.9%
- viability, T/C (second compound 3.16 µM, first compound 0.1 µM): 35.7%
- viability, T/C (second compound 3.16 µM, first compound 0.316 µM): 29.4%
- viability, T/C (second compound 3.16 µM, first compound 1 µM): 16.1%
- viability, T/C (second compound 3.16 µM, first compound 3.16 µM): 2.59%
- viability, T/C (second compound 3.16 µM, first compound 10 µM): 1.1%
- viability, T/C (second compound 10 µM, first compound 0.0316 µM): 25.3%
- viability, T/C (second compound 10 µM, first compound 0.1 µM): 17.3%
- viability, T/C (second compound 10 µM, first compound 0.316 µM): 10%
- viability, T/C (second compound 10 µM, first compound 1 µM): 7.22%
- viability, T/C (second compound 10 µM, first compound 3.16 µM): 0.49%
- viability, T/C (second compound 10 µM, first compound 10 µM): 0.61%
